Results published in patent publication EP0195316A1, “Quinolonecarboxylic acid derivatives” (KYORIN PHARMACEUTICAL CO., LTD., priority 1985, dated 1986).
In brackets after ≈: the same amount, converted by molar mass.

Experiments:
Test in all cases: MIC, in vitro antibacterial activity (standard strains)
Assay type in all cases: cell-based
P. morganii IID 602 = conditions: Morganella morganii, IID602; P. morganii IID 602, 10^6 cells/ml, Gram -
[1] = system: Citrobacter freundii IID 976; conditions: IID976; Citrobacter freundii IID 976, 10^6 cells/ml, Gram -; read-out: MIC
[2] = system: Clostridium difficile I-E; conditions: Clostridioides difficile, 10^6 cells/ml, Gram +
[3] = system: Acinetobacter anitratus IID 876; conditions: Acinetobacter calcoaceticus, IID876; Acinetobacter anitratus IID 876, 10^6 cells/ml, Gram -
S. epidermidis IID 866 = conditions: Staphylococcus epidermidis, IID866; S. epidermidis IID 866, 10^6 cells/ml, Gram +
[4] = system: Serratia marcescens IID 618; conditions: IID618; Serratia marcescens IID 618, 10^6 cells/ml, Gram -
B. fragilis 0558 = conditions: Bacteroides fragilis; B. fragilis 0558, 10^6 cells/ml, Gram -
[5] = system: Streptococcus pyogenes (S-8); conditions: Streptococcus pyogenes (S-8), 10^6 cells/ml, Gram +; read-out: MIC
S. pneumoniae IID 552 = conditions: Streptococcus pneumoniae, IID552; S. pneumoniae IID 552, 10^6 cells/ml, Gram +; read-out: MIC
F. varium KYA 8501 = conditions: Fusobacterium varium, KYA8501; F. varium KYA 8501, 10^6 cells/ml, Gram -; read-out: MIC
[6] = system: B. thetaiotaomicron (0661); conditions: Bacteroides thetaiotaomicron; B. thetaiotaomicron (0661), 10^6 cells/ml, Gram -; read-out: MIC
S. pyogenes IID 692 = conditions: Streptococcus pyogenes, IID692; S. pyogenes IID 692, 10^6 cells/ml, Gram +
E. coli ATCC 10536 = conditions: Escherichia coli, ATCC10536; E. coli ATCC 10536, 10^6 cells/ml, Gram -; read-out: MIC
[7] = system: Proteus vulgaris IFO 3167; conditions: IFO3167; Proteus vulgaris IFO 3167, 10^6 cells/ml, Gram -; read-out: MIC
[8] = system: Alcaligenes faecalis 0104002; conditions: Alcaligenes faecalis 0104002, 10^6 cells/ml, Gram -; read-out: MIC
P. aeruginosa IFO 12689 = conditions: Pseudomonas aeruginosa, IFO12689; P. aeruginosa IFO 12689, 10^6 cells/ml, Gram -
[9] = system: Bacillus subtilis PCI 219; conditions: PCI219; Bacillus subtilis PCI 219, 10^6 cells/ml, Gram +
[10] = system: Bacteroides fragilis GM 7000; conditions: GM7000; Bacteroides fragilis GM 7000, 10^6 cells/ml, Gram -
B. fragilis 8503 = conditions: Bacteroides fragilis; B. fragilis 8503, 10^6 cells/ml, Gram -
[11] = system: Salmonella enteritidis IID 604; conditions: Salmonella enterica; Salmonella enteritidis IID 604, 10^6 cells/ml, Gram -; read-out: MIC
[12] = system: Yersinia enterocolitica IID 981; conditions: IID981; Yersinia enterocolitica IID 981, 10^6 cells/ml, Gram -
E. faecalis IID 682 = conditions: Enterococcus faecalis, IID682; E. faecalis IID 682, 10^6 cells/ml, Gram +
[13] = system: Escherichia coli NIHJ JC-2; conditions: NIHJJC2; Escherichia coli NIHJ JC-2, 10^6 cells/ml, Gram -; read-out: MIC
[14] = system: S. aureus IID 670 (Terajima); conditions: Staphylococcus aureus, IID670, 10^6 cells/ml, Gram +
[15] = system: Klebsiella pneumoniae KY(GN)6445; conditions: Klebsiella pneumoniae KY(GN)6445, 10^6 cells/ml, Gram -; read-out: MIC
K. pneumoniae 1-220S = conditions: Klebsiella pneumoniae, 1220S; K. pneumoniae 1-220S, 10^6 cells/ml, Gram -; read-out: MIC
B. fragilis 25285 = conditions: Bacteroides fragilis; B. fragilis 25285, 10^6 cells/ml, Gram -
[16] = system: Staphylococcus aureus 209 P; conditions: 10^6 cells/ml, Gram +
Shigella sonnei IID 969 = conditions: IID969; Shigella sonnei IID 969, 10^6 cells/ml, Gram -
Description: Minimal inhibitory concentrations (MICs) were determined in accordance with the method recommended by Japan Society of Chemotherapy.

P. mirabilis IID 994 = conditions: Proteus mirabilis, IID994; P. mirabilis IID 994, 10^6 cells/ml, Gram -; read-out: MIC
[17] = system: Enterobacter cloacae IID 977; conditions: IID977; Enterobacter cloacae IID 977, 10^6 cells/ml, Gram -

CCNCC1CCN(c2c(F)cc3c(=O)c(C(=O)O)cn(CC)c3c2F)C1 (stereo not shown) [CI-934, 1-Ethyl-7-(3-ethylaminomethyl-1-pyrrolidinyl)-6,8-difluoro-1,4-dihydro-4-oxo-3-quinolinecarboxylic acid]
MIC (P. morganii IID 602): 0.39 µg/mL (≈ 1.03 µM)
MIC [1]: 0.2 µg/mL (≈ 0.527 µM)
MIC [2]: 3.13 µg/mL
MIC [3]: 0.39 µg/mL (≈ 1.03 µM)
MIC (S. epidermidis IID 866): 0.1 µg/mL
MIC [4]: 0.39 µg/mL (≈ 1.03 µM)
MIC (B. fragilis 0558): 3.13 µg/mL (≈ 8.25 µM)
MIC [5]: 0.2 µg/mL (≈ 0.527 µM)
MIC (S. pneumoniae IID 552): 0.39 µg/mL (≈ 1.03 µM)
MIC (F. varium KYA 8501): 6.25 µg/mL (≈ 16.5 µM)
MIC [6]: 25 µg/mL (≈ 65.9 µM)
MIC (S. pyogenes IID 692): 0.39 µg/mL
MIC (E. coli ATCC 10536): 0.1 µg/mL (≈ 0.264 µM)
MIC [7]: 0.05 µg/mL (≈ 0.132 µM)
MIC [8]: 6.25 µg/mL (≈ 16.5 µM)
MIC (P. aeruginosa IFO 12689): 6.25 µg/mL (≈ 16.5 µM)
MIC [9]: 0.05 µg/mL
MIC [10]: 6.25 µg/mL (≈ 16.5 µM)
MIC (B. fragilis 8503): 6.25 µg/mL (≈ 16.5 µM)
MIC [11]: 0.39 µg/mL (≈ 1.03 µM)
MIC [12]: 0.39 µg/mL (≈ 1.03 µM)
MIC (E. faecalis IID 682): 0.39 µg/mL
MIC [13]: 0.1 µg/mL (≈ 0.264 µM)
MIC [14]: 0.1 µg/mL
MIC [15]: 0.2 µg/mL (≈ 0.527 µM)
MIC (K. pneumoniae 1-220S): 0.39 µg/mL (≈ 1.03 µM)
MIC (B. fragilis 25285): 3.13 µg/mL (≈ 8.25 µM)
MIC [16]: 0.1 µg/mL
MIC (Shigella sonnei IID 969): 0.1 µg/mL (≈ 0.264 µM)
MIC (P. mirabilis IID 994): 0.2 µg/mL (≈ 0.527 µM)
MIC [17]: 0.78 µg/mL (≈ 2.06 µM)
